Measured values: US5539132A, “Cerulenin compounds for fatty acid synthesis inhibition” (Johns Hopkins University, priority 1994, dated 1996)
Converted amounts (≈) assume the structure as drawn.

Columns and labels:
HIV protease = conditions: cited from earlier work
HS 27 cells = assay: Growth inhibition assay, HS 27 cells (crystal violet); format: cell-based; conditions: Homo sapiens, HS27, 72 h; 3 days with compound
Experimental: (§1) Cells were seeded at 5×10^3 per well into 96-well plates and incubated for 3 days in RPMI, 10% FBS at 37° C. in a 5% CO2 :95% air atmosphere. Medium was removed and replaced with media plus compound. Compound doses were 10 serial dilutions from 200 μg/ml to 0.39 μg/ml. Cells were returned to the incubator for 3 additional days. The medium was removed and plates were washed twice with phosphate buffered saline. Wells were filled with 100 μl of 0.2% crystal violet in 2% ethanol for 10 min. Stain was removed from the wells and the plates were washed 3 times with distilled H2 O. After at least 4 h of drying wells were filled with 100 μl of 1% SDS and plates were shaken to disolve any dye crystals. Absorbance at 560 nm minus 650 nm in each well was measured using a Molecular Devices plate reader. IC50 values were calculated from 4-parameter curve-fits of the dose-response curves.

[1] = system: Mycobacterium tuberculosis; conditions: cited from earlier work
[2] = biological target: T1, FAS (fatty acid synthase), Cancer (Homo sapiens, UniProt P49327); assay: FAS enzymatic assay, crude extract of breast cancer cell line ZR-75-1 (NADPH oxidation); format: biochemical; conditions: ZR-75-1 crude cell extract, 30 min incubation at 10°-25° C.; read-out: IC50 for inhibition of FAS activity, Cancer
T1 construct: using a crude cell extract of a cancer cell line or Saccharomyces cerevisiae; endogenous in cells; host or cells: ZR-75-1 breast cancer cell line (crude dialyzed digitonin extract)
Experimental: Preparation of crude cell extracts: The potential of compounds to inhibit FAS enzymatic activity was determined using a crude cell extract of a cancer cell line or Saccharomyces cerevisiae. The breast cancer cell line ZR-75-1 was grown to confluence in RPMI with 10$FBS. The cells were harvested by scraping, washed once with cold phosphate buffered saline pH 7.5 and stored at -80° C. Extracts were prepared by thawing the cells in the presence of 4 vol. of 25 mM potassium phosphate pH 7.5, 1 mM EDTA, 1 mM DTT, 0.4% digitonin, 0.7 μg/ml pepstatin, 2 μg/ml aprotinin and 0.5 μg/ml leupeptin. Cells were homogenized with a Dounce type homogenizer for 20 strokes. Extracts were cleared by two sequential centrifugations at 30,000 xg, for 30 min each. The extract was dialyzed against 125 mM potassium phosphate pH 6.6, 1 mM EDTA, 1 mM DTT using a 100,000 molecular weight cut off membrane. The extract stored at 4° C. with 3 mM sodium azide. Yeast extracts were prepared from freeze-dried yeast. Yeast were reconstituted in 5 vol/g 100 mM potassium phosphate pH 6.5. Cells were harvested by centrifugation at 3,000 xg for 10 min. Cells were washed with 5 vol 100 mM potassium phosphate pH 6.5 and suspended in 2 vol. 125 mM potassium phosphate pH 6.6, 1 mM EDTA, 1 mM DTT, 0.7 μg/ml pepstatin, 2 μg/ml aprotinin and 0.5 μg/ml leupeptin. Sterile 0.5 mm glass beads were added (1/2 vol) and the mixture vortex vigorously for four 30 s intervals with 30 s rests on ice between mixes. Extracts were cleared by centrifugation and dialyzed as described above.
Testing of compound activity: Compounds were tested for their ability to inhibit FAS enzymatic activity by incubating the compounds with the crude cell extracts and measuring residual FAS activity. The compounds were mixed with a crude cell extract to the desired concentration and the mixture incubated at 10°-25° C. for 30 min. Residual FAS activity was measured as described below. The concentration of compound giving 50% maximal activity defined the IC50 which was calculated from a 4-parameter equation of the dose-response curves.
(§2) Enzymatic assay conditions: The FAS enzyme activity was measured by monitoring the oxidation of NADPH spectrophotometrically (Dils, R. and E. M. Carey, 1975, Fatty acid synthase from rabbit mammary gland. Methods in Enzymol. 35:74-83). A 50 μl portion of an extract or extract-compound mixture was mixed with 50 μl 250 mM potassium phosphate pH 6.6, 40 μM acetyl-CoA, 200 μM malonyl-CoA, 1 mM NADPH and 2 mM DTT. The initial rate of NADPH oxidation at 25° C. was measured by monitoring the decrease in absorbance at 340 nm.

[3] = biological target: T2, FAS (fatty acid synthase), Yeast (Saccharomyces cerevisiae, UniProt P19097); assay: FAS enzymatic assay, crude yeast extract (NADPH oxidation); format: biochemical; conditions: 30 min incubation at 10°-25° C., read-out: IC50 for inhibition of FAS activity, Yeast
T2 construct: Yeast extracts were prepared from freeze-dried yeast; endogenous in cells; host or cells: freeze-dried Saccharomyces cerevisiae (crude glass-bead extract, dialyzed)
Experimental: Preparation of crude cell extracts: The potential of compounds to inhibit FAS enzymatic activity was determined using a crude cell extract of a cancer cell line or Saccharomyces cerevisiae. The breast cancer cell line ZR-75-1 was grown to confluence in RPMI with 10$FBS. The cells were harvested by scraping, washed once with cold phosphate buffered saline pH 7.5 and stored at -80° C. Extracts were prepared by thawing the cells in the presence of 4 vol. of 25 mM potassium phosphate pH 7.5, 1 mM EDTA, 1 mM DTT, 0.4% digitonin, 0.7 μg/ml pepstatin, 2 μg/ml aprotinin and 0.5 μg/ml leupeptin. Cells were homogenized with a Dounce type homogenizer for 20 strokes. Extracts were cleared by two sequential centrifugations at 30,000 xg, for 30 min each. […]
Testing of compound activity: Compounds were tested for their ability to inhibit FAS enzymatic activity by incubating the compounds with the crude cell extracts and measuring residual FAS activity. […] Residual FAS activity was measured as described below. […]
as §2, with “A 50 μl portion of an extract or extract-compound mixture was mixed with 50 μl 250 mM potassium phosphate pH 6.6, 40 μM acetyl-CoA, 200 μM malonyl-CoA, 1 mM NADPH and 2 mM DTT.” left out

[4] = system: mammary, colon, and prostatic carcinoma lines; conditions: U.S. Ser. No. 08/096,908 and its CIP; cited from earlier work
Candida albicans = assay: Control organism susceptibility, Candida albicans; format: cell-based; conditions: read-out: MIC (control organism)
SKBr 3 cells = assay: Growth inhibition assay, SKBr 3 cells (crystal violet); format: cell-based; conditions: Homo sapiens, SK-BR-3, 72 h; 3 days with compound
Experimental: as §1

fatty acid synthase = conditions: cited from earlier work
[5] = system: bacteria, actinomycetes, and mycobacteria; conditions: cited from earlier work
[6] = system: myristoylation of proteins; conditions: cited from earlier work
M. tuberculosis = assay: Radiometric (Bactec) susceptibility test, M. tuberculosis; format: cell-based; conditions: Mycobacterium tuberculosis
[7] = system: fatty acid synthase expression in MCF-7 cells; conditions: Northern analysis; cited from earlier work
[8] = system: panel of cell lines with varying levels of FAS enzyme activity; assay: Anti-proliferative effect on a panel of cell lines with varying levels of FAS; format: cell-based
acyl CoA-synthetase = conditions: for long-chain fatty acids; cited from earlier work
Raji cells = conditions: cited from earlier work
Vero cells = conditions: cited from earlier work
[9] = biological target: rat liver acyl-CoA synthetase; conditions: read-out: concentration causing 50% inhibition of acyl-CoA synthetase; cited from earlier work
Hela cells = conditions: cited from earlier work

T1 sequence (P49327 whole entry): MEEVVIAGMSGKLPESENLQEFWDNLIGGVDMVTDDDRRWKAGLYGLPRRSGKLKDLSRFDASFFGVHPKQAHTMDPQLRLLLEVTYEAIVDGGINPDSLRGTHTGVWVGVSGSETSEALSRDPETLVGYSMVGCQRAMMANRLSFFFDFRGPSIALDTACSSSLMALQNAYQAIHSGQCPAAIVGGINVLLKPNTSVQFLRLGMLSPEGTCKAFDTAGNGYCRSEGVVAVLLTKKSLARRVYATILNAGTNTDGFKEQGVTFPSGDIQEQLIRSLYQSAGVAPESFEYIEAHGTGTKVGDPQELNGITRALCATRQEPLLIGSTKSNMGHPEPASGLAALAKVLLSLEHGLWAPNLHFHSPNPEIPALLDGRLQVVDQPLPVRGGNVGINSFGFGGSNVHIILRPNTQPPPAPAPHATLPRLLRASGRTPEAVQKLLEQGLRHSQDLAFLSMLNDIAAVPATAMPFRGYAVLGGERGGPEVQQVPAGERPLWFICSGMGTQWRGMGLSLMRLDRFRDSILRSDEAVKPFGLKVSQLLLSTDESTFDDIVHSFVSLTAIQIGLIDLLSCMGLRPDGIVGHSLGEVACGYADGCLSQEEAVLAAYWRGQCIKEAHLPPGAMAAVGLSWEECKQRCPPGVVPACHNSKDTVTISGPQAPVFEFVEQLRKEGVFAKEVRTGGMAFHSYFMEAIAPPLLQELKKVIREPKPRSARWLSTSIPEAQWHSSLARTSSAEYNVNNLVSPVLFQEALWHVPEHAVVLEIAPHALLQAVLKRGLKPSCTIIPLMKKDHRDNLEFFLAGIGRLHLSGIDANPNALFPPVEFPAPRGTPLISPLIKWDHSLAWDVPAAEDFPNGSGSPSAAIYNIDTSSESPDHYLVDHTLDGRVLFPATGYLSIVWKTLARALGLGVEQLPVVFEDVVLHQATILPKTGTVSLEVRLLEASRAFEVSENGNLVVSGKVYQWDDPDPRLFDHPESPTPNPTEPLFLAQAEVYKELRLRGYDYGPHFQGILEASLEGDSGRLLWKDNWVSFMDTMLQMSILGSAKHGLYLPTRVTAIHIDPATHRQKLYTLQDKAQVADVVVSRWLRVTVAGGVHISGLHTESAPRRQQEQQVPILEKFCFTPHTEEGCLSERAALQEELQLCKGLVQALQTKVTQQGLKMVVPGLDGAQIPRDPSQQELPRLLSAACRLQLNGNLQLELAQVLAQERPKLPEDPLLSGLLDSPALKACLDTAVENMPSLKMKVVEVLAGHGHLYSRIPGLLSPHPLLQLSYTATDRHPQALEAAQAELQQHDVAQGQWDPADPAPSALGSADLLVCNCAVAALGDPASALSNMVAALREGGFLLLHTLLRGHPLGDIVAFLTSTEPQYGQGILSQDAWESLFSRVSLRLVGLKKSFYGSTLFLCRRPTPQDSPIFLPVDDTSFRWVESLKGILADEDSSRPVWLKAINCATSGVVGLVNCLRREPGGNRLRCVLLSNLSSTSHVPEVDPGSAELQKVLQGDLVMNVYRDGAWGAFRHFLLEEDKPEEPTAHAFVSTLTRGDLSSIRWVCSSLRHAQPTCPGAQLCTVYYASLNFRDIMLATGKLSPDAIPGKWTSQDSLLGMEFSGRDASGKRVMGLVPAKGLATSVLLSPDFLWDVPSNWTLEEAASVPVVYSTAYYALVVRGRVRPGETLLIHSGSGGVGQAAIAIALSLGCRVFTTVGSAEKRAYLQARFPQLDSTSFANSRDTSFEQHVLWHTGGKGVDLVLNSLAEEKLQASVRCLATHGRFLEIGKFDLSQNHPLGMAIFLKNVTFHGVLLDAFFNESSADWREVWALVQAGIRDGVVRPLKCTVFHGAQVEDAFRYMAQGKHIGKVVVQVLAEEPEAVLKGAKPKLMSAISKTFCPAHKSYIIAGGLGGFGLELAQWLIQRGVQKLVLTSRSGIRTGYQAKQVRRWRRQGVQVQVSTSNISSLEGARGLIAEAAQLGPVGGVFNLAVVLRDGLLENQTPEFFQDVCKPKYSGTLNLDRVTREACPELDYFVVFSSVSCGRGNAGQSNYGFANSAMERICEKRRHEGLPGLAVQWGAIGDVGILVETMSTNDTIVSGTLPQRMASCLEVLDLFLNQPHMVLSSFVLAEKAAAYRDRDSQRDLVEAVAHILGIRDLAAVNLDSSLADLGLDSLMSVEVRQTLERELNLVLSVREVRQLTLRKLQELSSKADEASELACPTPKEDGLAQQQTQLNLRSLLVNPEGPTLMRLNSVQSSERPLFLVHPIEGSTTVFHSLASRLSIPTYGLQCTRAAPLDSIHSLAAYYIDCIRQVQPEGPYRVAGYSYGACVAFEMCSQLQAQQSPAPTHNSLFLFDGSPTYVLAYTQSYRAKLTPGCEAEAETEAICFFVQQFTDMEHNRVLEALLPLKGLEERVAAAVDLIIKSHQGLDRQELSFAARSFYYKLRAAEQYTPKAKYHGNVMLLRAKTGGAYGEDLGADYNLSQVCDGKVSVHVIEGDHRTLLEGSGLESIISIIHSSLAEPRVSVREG

Compound	IC50 (HS 27 cells) [µM]	IC50 [2] [µM]	IC50 (SKBr 3 cells) [µM]	also measured
C/C=C/C/C=C/CCC(=O)[C@H]1O[C@H]1C(N)=O [CTC002, (2S) (3R) 2,3-epoxy-4-oxo-7,10 dodecadienoyl amide]	20	8.6	20	inhibition of viral HIV protease, concentration (HIV protease): 5 mg/mL; in vitro activity against Mycobacterium tuberculosis [1]: no activity; IC50 [3]: 0.4 µM; growth inhibition of carcinoma lines [4]: potently inhibit the growth; MIC (Candida albicans): < 1.5 µg/mL; type of inhibition of fatty acid synthase (fatty acid synthase): specific and non-competitive inhibitor; in vitro activity against some bacteria, actinomycetes, and mycobacteria [5]: some in vitro activity; inhibition of myristoylation of proteins [6]: does not specifically inhibit
Cc1cccc(/C=C/CCC2C=CC(=O)O2)c1 (centres unmarked) [CTC003]	> 50	> 100	> 50	–
Cc1cccc(/C=C/CCC(O)C2OC2C(N)=O)c1 (centres unmarked) [CTC004]	> 50	> 100	> 50	–
Cc1cccc(/C=C/CCCN2C(=O)C=CC2=O)c1 [CTC005]	> 50	> 78	> 50	–
Cc1cccc(/C=C/CCC(=O)C2OC2C(N)=O)c1 (centres unmarked) [CTC006]	32	10.4	21	MIC (M. tuberculosis): 25 µg/mL (≈ 96.4 µM); IC50 [3]: 82 µM
C/C=C/C/C=C/CCN1C(=O)C=CC1=O [CTC013]	63	> 97	63	–
C/C=C/C/C=C/CCCN1C(=O)C=CC1=O [CTC014]	> 50	> 92	> 50	–
N[C@@H](Cc1cc(I)c(Oc2ccc(O)c(I)c2)c(I)c1)C(=O)O [T3, reference compound]	–	–	–	effect on fatty acid synthase expression [7]: no effect
CCCCCCCCCCCCCCOc1ccc(C(=O)O)o1 [TOFA]	–	–	–	anti-proliferative effect [8]: anti-proliferative effect
CCCCCC/C=C/C=C/C=N/NN=O [Triacsin A]	–	–	–	mechanism of inhibition of acyl CoA-synthetase (acyl CoA-synthetase): competitive
CCC/C=C/C/C=C/C=C/C=NN=NO [Triacsin C, 1-hydroxy-3-(E, E, E-2',4',7'-undecatrienylidine) triazene]	–	–	–	growth inhibition, concentration (Raji cells): 1.0 µM; growth inhibition of Vero cells (Vero cells): inhibit growth; IC50 [9]: 8.7 µM; growth inhibition of Hela cells (Hela cells): inhibit growth
CC(=O)[C@H]1CC[C@H]2[C@@H]3CCC4=CC(=O)CC[C@]4(C)[C@H]3CC[C@]12C [progesterone, reference compound]	–	–	–	increase in fatty acid synthase expression [7]: 5-10 fold
insulin growth factor-1: insulin growth factor-1	–	–	–	effect on fatty acid synthase expression [7]: only slightly stimulatory
insulin: insulin	–	–	–	effect on fatty acid synthase expression [7]: only slightly stimulatory
